Results on three compounds are retold here after patent US11649238B2, “Substituted pyrazolo[1,5-a]pyrimidines as PI4K inhibitors” (GLAXOSMITHKLINE INTELLECTUAL PROPERTY DEVELOPMENT LIMITED, priority 2018, dated 2023).

For series [1] the following is noted: intranasal administration, cited from earlier work; for accumulation of compound in lung tissue: rat model.
The target of series [2] is T1, human PI4KIII-beta 13-828 (D316-330) (Homo sapiens, UniProt Q9UBF8).
T1 construct: human PI4KIII-beta 13-828 (D316-330)
T1 sequence (Q9UBF8 1-801 isoform Q9UBF8-2): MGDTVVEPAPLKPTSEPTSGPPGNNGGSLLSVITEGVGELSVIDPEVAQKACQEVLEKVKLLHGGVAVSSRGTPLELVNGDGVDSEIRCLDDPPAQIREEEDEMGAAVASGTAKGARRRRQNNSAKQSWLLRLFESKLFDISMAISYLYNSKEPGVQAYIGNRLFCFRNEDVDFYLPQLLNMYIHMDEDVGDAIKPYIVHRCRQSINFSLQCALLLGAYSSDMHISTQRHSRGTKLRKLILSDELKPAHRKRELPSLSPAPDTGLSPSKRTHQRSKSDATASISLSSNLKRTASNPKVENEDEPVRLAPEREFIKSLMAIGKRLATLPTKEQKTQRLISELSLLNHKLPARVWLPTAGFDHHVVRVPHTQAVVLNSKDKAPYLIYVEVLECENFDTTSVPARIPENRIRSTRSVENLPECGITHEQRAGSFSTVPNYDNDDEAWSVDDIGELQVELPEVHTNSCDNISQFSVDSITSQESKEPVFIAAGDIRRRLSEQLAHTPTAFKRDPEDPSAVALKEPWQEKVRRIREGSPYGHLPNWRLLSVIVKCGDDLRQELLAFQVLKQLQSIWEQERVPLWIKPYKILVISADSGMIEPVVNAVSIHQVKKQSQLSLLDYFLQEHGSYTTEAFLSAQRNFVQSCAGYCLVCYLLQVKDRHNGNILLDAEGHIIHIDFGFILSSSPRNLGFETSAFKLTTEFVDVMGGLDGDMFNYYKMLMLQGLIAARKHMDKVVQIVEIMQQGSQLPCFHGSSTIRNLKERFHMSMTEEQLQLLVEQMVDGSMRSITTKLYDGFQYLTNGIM
In words: PI4 KB Activity Assay (ADP-GLO Kinase assay). The format is biochemical. Conditions: 1 mM ATP, 60 μM phosphatidylinositol, 3 hours at room temperature; read-out: mean pIC50 (converted). In short, it runs like this:
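Human PI4KIII-beta 13-828 (Δ316-330), 1.5 nM, with 1 mM ATP and 60 μM phosphatidylinositol in Hepes pH 7.5/MgCl2 buffer, 11-point titration (top 10 μM, 1% DMSO), 3 h at room temperature. ADP measured by ADP-Glo luminescence; IC50 by four-parameter fit against no-compound and no-enzyme controls.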
For orientation: ADP-Glo turns the ADP formed in a reaction into a luminescent signal.

Series [3] is described as follows: Spleen Concentration Assay. Conditions: male, Wistar Han, rat, intravenous, 1 mg/kg, intravenous infusion 1 mg/kg over 1 h, single male Wistar Han rat, 12 hours after the start of dosing. The format is in vivo. The procedure:
e) Spleen Concentration Assay Compounds 17, 18, 19, 22 and 23 were tested in this spleen accumulation assay. Compounds were administered intravenously to rats to determine what the level of the compound in the spleen would be if all of the inhaled dose was absorbed (either orally or through the lungs) and systemic circulation was exposed to the full dose. Compounds 17, 19, 22 and 23 were formulated in 2% DMSO in Kleptose (aq, 10% w/v). Compound 18 was formulated in a 5:45:50 ratio of DMSO:PEG200:water. Formulations were administered as intravenous infusions (1 mg/kg over 1 h) to a single male, Wistar Han rat. 12 hours after the start of dosing, rats were euthanised and spleens were collected. Approximately 0.5 g samples of spleen were taken and homogenised in 4 mL water. 100 μL of the resulting homogenates were prepared by protein precipitation with 300 μL of acetonitrile containing an internal standard and assayed (along with calibration standards prepared in the same manner) by reversed-phase liquid chromatography-mass spectrometry, using a heated electrospray source and operated in the positive ion multiple reaction monitoring mode. The liquid chromatography column used was a Waters Cortecs C18 2.7 μm particle size, 50×2.1 mm column at 60° C., and the mobile phase, operated as a gradient, utilised (A) 0.1% formic acid (aq) and (B) 0.1% formic acid in acetonitrile, operated at a flow rate of 1 mL/min.

As to `Cc1cc(NCc2cccc(-n3cccc3)c2)n2nc(C)c(-c3ccc(Cl)c(C(=O)N(C)CCN(C)C)c3)c2n1` [GSK3159043A], in series [1], the “accumulation of compound in lung tissue” value is recorded as “substantial accumulation of compound in lung tissue”. In addition, the “histological findings following IN dose” value in series [1] (rat nasal cavity and lung) is “ulceration in the rat nasal cavity and bronchial epithelial hyperplasia in the rat lung”. Take `COc1ccc(-c2c(C)nn3c(NCc4cccc(-c5nccn5C)c4)cc(C(C)(C)O)nc23)cc1C(=O)N(C)C` [Compound 23]: the IC50 in series [2] was at most 3.98 nM. Moreover, in series [3], the concentration at 12 h is below 7 ng/g. With `COc1ccc(-c2c(C)nn3c(NCc4cccc(-n5cccc5)c4)cc(OCCCN(C)C)nc23)cc1S(C)(=O)=O` [GSK3180404A], in series [1], the “accumulation of compound in lung tissue” value is on record as “substantial accumulation of compound in lung tissue”.
